# Laboratory results taken from patent US20140135319A1, “6-SUBSTITUTED IMIDAZOPYRAZINES FOR USE AS MPS-1 AND TKK INHIBITORS IN THE TREATMENT OF HYPERPROLIFERATIVE DISORDERS” (BAYER INTELLECTUAL PROPERTY GMBH, priority 2010, published 2014).
# Biological target: T1, human kinase Mps-1 (Homo sapiens, UniProt P33981)
# T1 construct: N-terminally GST-tagged human full length recombinant Mps-1 kinase; GST (N); purchased Invitrogen, Karslruhe, Germany PV4071
# T1 sequence (P33981 1-857): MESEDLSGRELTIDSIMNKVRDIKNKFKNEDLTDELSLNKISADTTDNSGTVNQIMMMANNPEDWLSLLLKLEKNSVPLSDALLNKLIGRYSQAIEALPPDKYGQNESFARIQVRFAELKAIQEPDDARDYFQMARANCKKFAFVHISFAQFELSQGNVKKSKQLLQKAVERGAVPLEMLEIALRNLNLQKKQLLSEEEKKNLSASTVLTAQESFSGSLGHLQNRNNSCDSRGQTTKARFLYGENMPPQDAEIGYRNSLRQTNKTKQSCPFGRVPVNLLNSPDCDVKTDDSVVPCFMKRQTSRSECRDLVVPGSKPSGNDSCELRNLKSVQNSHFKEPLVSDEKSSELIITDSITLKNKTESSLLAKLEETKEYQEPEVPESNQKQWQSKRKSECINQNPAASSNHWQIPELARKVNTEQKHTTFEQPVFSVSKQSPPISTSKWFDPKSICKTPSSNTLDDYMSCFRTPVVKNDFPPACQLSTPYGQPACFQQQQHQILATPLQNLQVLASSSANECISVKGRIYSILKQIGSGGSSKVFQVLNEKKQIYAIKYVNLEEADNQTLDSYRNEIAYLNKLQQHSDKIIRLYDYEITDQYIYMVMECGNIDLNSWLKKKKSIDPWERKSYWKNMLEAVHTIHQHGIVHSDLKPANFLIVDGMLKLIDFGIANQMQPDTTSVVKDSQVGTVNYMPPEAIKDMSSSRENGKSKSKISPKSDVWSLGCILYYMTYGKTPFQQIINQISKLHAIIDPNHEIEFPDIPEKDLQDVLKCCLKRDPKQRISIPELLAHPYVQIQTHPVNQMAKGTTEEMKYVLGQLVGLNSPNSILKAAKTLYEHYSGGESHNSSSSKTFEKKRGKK
# Assay: Mps-1 kinase assay (TR-FRET)
# Format: biochemical
# Conditions: GST-tagged human full length recombinant Mps-1; 10 μM ATP; 1 μM peptide substrate; 60 min at 22° C.
# Procedure, shortened: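 N-terminally GST-tagged full-length recombinant human Mps-1, about 1 nM final, phosphorylates a biotinylated peptide. Product detected by TR-FRET from Eu-anti-phospho-Ser/Thr antibody to streptavidin-XLent after 1 h at 22° C.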
row,Compound,IC50
1,"O=C(NC1CC1)c1ccc(-c2cnc3c(NCC4CCCO4)nc(C4=CCOCC4)cn23)cc1Cl (centres unmarked) [Example 1-45, 2-chloro-N-cyclopropyl-4-{6-(3,6-dihydro-2H-pyran-4-yl)-8-[(tetrahydro-furan-2-ylmethyl)amino]imidazo[1,2-a]pyrazin-3-yl}benzamide]",105 nM
2,"CC(C)(O)CNc1nc(-c2cccc(CC(N)=O)c2)cn2c(-c3ccc(C(=O)NC4CC4)cc3)cnc12 [Example 1-91, 4-{6-[3-(2-Amino-2-oxo-ethyl)phenyl]-8-[(2-hydroxy-2-methylpropyl)amino]imidazo[1,2-a]pyrazin-3-yl}-N-cyclopropylbenzamide]",4 nM
3,"Cc1cc(-c2cnc3c(NCCC(F)(F)F)nc(-c4cc[nH]n4)cn23)ccc1C(=O)NC1CC1 [Example 1-77, N-cyclopropyl-2-methyl-4-{6-(1H-pyrazol-3-yl)-8-[(3,3,3-trifluoropropyl)amino]imidazo[1,2-a]pyrazin-3-yl}benzamide]",3.3 nM
4,"O=C(NC1CC1)c1ccc(-c2cnc3c(NCCC(F)(F)F)nc(-c4ccn[nH]4)cn23)cc1F [Example 1-55, N-cyclopropyl-2-fluoro-4-{6-(1H-pyrazol-5-yl)-8-[(3,3,3-trifluoropropyl)amino]imidazo[1,2-a]pyrazin-3-yl}benzamide]",9.6 nM
5,"CC(C)CNc1nc(-c2cncc(F)c2)cn2c(-c3ccc(C(=O)NC4CC4)cc3)cnc12 [Example 1-21, N-cyclopropyl-4-{6-(5-fluoropyridin-3-yl)-8-[(2-methylpropyl)amino]imidazo[1,2-a]pyrazin-3-yl}benzamide]",19.4 nM
6,"CC(C)CNc1nc(-c2ccncc2)cn2c(-c3ccc(C(=O)NC4CC4)cc3)cnc12 [Example 1-1, N-cyclopropyl-4-{8-[(2-methylpropyl)amino]-6-(pyridin-4-yl)imidazo[1,2-a]pyrazin-3-yl}benzamide]",1.8 nM
7,"Cc1cc(-c2cnc3c(NCCC(F)(F)F)nc(-c4ccoc4)cn23)ccc1C(=O)NC1CC1 [Example 1-71, N-cyclopropyl-4-{6-(furan-3-yl)-8-[(3,3,3-tri-fluoropropyl)amino]imidazo[1,2-a]pyrazin-3-yl}-2-methylbenzamide]",3.9 nM
8,"CC(C)(O)CNc1nc(-c2ccoc2)cn2c(-c3ccc(C(=O)NC4CC4)c(Cl)c3)cnc12 [Example 1-41, 2-chloro-N-cyclopropyl-4-{6-(furan-3-yl)-8-[(2-hydroxy-2-methylpropyl)amino]imidazo[1,2-a]pyrazin-3-yl}benzamide]",55.3 nM
9,"Cc1cc(-c2cnc3c(NCCC(F)(F)F)nc(-c4c(C)noc4C)cn23)ccc1C(=O)NC1CC1 [Example 1-74, N-cyclopropyl-4-{6-(3,5-dimethyl-1,2-oxazol-4-yl)-8-[(3,3,3-trifluoro-propyl)amino]imidazo [1,2-a]pyrazin-3-yl}-2-methylbenzamide]",4.1 nM
10,"NCCCNc1nc(-c2ccncc2)cn2c(-c3ccc(C(=O)NC4CC4)c(Cl)c3)cnc12 [Example 1-101, 4-{8-[(3-Aminopropyl)amino]-6-(pyridin-4-yl)imidazo [1,2-a]pyrazin-3-yl}-2-chloro-N-cyclopropyl-benzamide]",361 nM
11,"Cc1cc(-c2cnc3c(NCCC(F)(F)F)nc(C4=CCNCC4)cn23)ccc1C(=O)NC1CC1 [Example 1-76, N-cyclopropyl-2-methyl-4-{6-(1,2,3,6-tetrahydro-pyridin-4-yl)-8-[(3,3,3-trifluoropropyl)amino]imidazo[1,2-a]pyrazin-3-yl}benzamide]",13 nM
12,"CC(C)CNc1nc(C2=CCNCC2)cn2c(-c3ccc(C(=O)NC4CC4)cc3)cnc12 [Example 1-26, N-cyclopropyl-4-{8-[(2-methylpropyl)amino]-6-(1,2,3,6-tetrahydro-pyridin-4-yl)imidazo [1,2-a]pyrazin-3-yl} benzamide]",2.9 nM
13,"CC(C)(O)CNc1nc(-c2ccncc2)cn2c(-c3ccc(C(=O)NC4CC4)c(Cl)c3)cnc12 [Example 1-40, 2-chloro-N-cyclopropyl-4-{8-[(2-hydroxy-2-methylpropyl)amino]-6-(pyridin-4-yl)imidazo [1,2-a]pyrazin-3-yl} benzamide]",57.7 nM

# The next lines start with the values.
row,IC50,Compound
1,294 nM,"Cc1cc(-c2cnc3c(NCC4CN(C)CCO4)nc(C4=CCOCC4)cn23)ccc1C(=O)NC1CC1 (centres unmarked) [Example 6-7, N-cyclopropyl-4-[6-(3,6-dihydro-2H-pyran-4-yl)-8-{[(4-methyl-morpholin-2-yl)methyl]amino}imidazo[1,2-a]pyrazin-3-y1]-2-methylbenzamide]"
2,12.9 nM,"O=C(NC1CC1)c1ccc(-c2cnc3c(NCCCn4ccnc4)nc(-c4ccncc4)cn23)cc1 [Example 3-16, N-cyclopropyl-4-[8-{[3-(1H-imidazol-1-yl)propyl]amino}-6-(pyridin-4-yl)imidazo[1,2-a]pyrazin-3-yl]benzamide]"
3,1 nM,"O=C(NC1CC1)c1ccc(-c2cnc3c(NCc4ccccc4F)nc(-c4ccncc4)cn23)cc1 [Example 3-9, N-cyclopropyl-4-{8-[(2-fluorobenzyl)amino]-6-(pyrdin-4-yl)imidazo [1,2-a]pyrazin-3-yl} benzamide]"
4,1.2 nM,"Cc1cc(-c2cnc3c(NCCC(F)(F)F)nc(CNc4ccccc4)cn23)ccc1C(=O)NC1CC1 [Example 11-2, N-cyclopropyl-2-methyl-4-{6-[(phenylamino)methyl]-8-[(3,3,3-trifluoropropyl)amino]imidazo[1,2-a]pyrazin-3-yl}benzamide]"
5,5.1 nM,"O=C(NC1CC1)c1ccc(-c2cnc3c(NCCCOCC4COCO4)nc(-c4ccccc4)cn23)cc1 (centres unmarked) [Example 3-42, N-cyclopropyl-4-(8-{[3-(1,3-dioxolan-4-ylmethoxy)propyl]amino}-6-phenylimidazo[1,2-a]pyrazln-3-yl)benzamide]"
6,6.9 nM,"CC(C)CNc1nc(CCC(C)(C)O)cn2c(-c3ccc(C(=O)NC4CC4)cc3)cnc12 [Example 7-1, N-cyclopropyl-4-{6-(3-hydroxy-3-methylbutyl)-8-[(2-methylpropyl)amino]imidazo[1,2-a]pyrazin-3-yl}benzamide]"
7,20.6 nM,"Cc1cc(-c2cnc3c(NCCC(C)CO)nc(C4=CCOCC4)cn23)ccc1C(=O)NC1CC1 (centres unmarked) [Example 6-6, N-cyclopropyl-4-{6-(3,6-dihydro-2H-pyran-4-yl)-8-[(4-hydroxy-3-methylbutyl)amino]imidazo[1,2-a]pyrazin-3-yl}-2-methylbenzamide]"
8,19.6 nM,"C[S+]([O-])CCNc1nc(-c2ccncc2)cn2c(-c3ccc(C(=O)NC4CC4)cc3)cnc12 (centres unmarked) [Example 3-25, N-cyclopropyl-4-[8-{[2-(methylsulfinyl)ethyl]amino}-6-(pyridin-4-yl)imidazo[1,2-a]pyrazin-3-yl]benzamide]"
9,140 nM,"Cc1cc(-c2cnc3c(NCCC(F)(F)F)nc(CN4CCCCC4)cn23)ccc1C(=O)NC1CC1 [Example 11-1, N-cyclopropyl-2-methyl-4-{6-(piperidin-1-ylmethyl)-8-[(3,3,3-trifluoropropyl)amino]imidazo[1,2-a]pyrazin-3-yl}benzamide]"
10,17.8 nM,"O=C(NC1CC1)c1ccc(-c2cnc3c(NCCOCCOCCO)nc(-c4ccccc4)cn23)cc1 [Example 3-43, N-cyclopropyl-4-[8-({2-[2-(2-hydroxyethoxy)ethoxy]ethyl}amino)-6-phenylimidazo[1,2-a]pyrazin-3-yl]benzamide]"
